Assay results: patent US10245261B2, “Substituted indol-5-ol derivatives and their therapeutic applications” (NantBioScience, Inc., priority 2013, dated 2019)

Legend:
Assay in all cases: KinaseProfiler kinase assay
Format in all cases: biochemical
PAR-1Bα(h) = PAR-1Bα(h) (Homo sapiens, UniProt Q7KZI7)
Method in brief: (§1)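 Compounds were serially diluted from DMSO into 20 mM MOPS buffer with EDTA, Brij-35, glycerol, β-mercaptoethanol and 1 mg/mL BSA. Reactions started with MgATP/[γ-33P]ATP, ran 40 min at room temperature, and phosphorylation was measured by scintillation counting after filtermat capture.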

Src(1-530)(h) = target: T1, Src(1-530)(h) (Homo sapiens, UniProt P12931)
T1 construct: Src(1-530)(h)
Method in brief: as §1

TrkA(h) = TrkA(h) (Homo sapiens, UniProt P04629)
Method in brief: as §1

NLK(h) = NLK(h) (Homo sapiens, UniProt Q9UBE8)
Sequence of NLK(h) (Q9UBE8 whole entry): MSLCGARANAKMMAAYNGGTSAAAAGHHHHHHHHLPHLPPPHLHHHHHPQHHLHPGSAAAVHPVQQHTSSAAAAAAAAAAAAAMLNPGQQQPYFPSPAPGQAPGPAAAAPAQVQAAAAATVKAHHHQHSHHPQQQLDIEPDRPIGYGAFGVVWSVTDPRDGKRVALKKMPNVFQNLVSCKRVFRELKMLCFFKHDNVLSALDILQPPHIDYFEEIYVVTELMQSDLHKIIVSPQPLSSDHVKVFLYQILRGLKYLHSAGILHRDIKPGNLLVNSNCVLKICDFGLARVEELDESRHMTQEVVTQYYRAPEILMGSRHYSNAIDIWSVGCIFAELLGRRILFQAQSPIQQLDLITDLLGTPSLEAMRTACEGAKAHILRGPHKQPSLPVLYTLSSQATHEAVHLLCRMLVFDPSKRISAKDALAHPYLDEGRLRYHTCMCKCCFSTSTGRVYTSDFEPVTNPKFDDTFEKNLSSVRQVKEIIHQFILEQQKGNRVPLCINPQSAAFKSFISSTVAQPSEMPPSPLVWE
Method in brief: as §1

EphA5(h) = EphA5(h) (Homo sapiens, UniProt P54756)
Method in brief: as §1

ULK2(h) = ULK2(h) (Homo sapiens, UniProt Q8IYT8)
Method in brief: as §1

[1] = target: PI3 Kinase (p110α(E542K)/p85α)(m) (Mus musculus, UniProt P42337, E542K)
Method in brief: as §1

FGFR2(N549H)(h) = FGFR2(N549H)(h) (Homo sapiens, UniProt P21802, N549H)
Method in brief: as §1

Plk1(h) = Plk1(h) (Homo sapiens, UniProt P53350)
Sequence of Plk1(h) (P53350 whole entry): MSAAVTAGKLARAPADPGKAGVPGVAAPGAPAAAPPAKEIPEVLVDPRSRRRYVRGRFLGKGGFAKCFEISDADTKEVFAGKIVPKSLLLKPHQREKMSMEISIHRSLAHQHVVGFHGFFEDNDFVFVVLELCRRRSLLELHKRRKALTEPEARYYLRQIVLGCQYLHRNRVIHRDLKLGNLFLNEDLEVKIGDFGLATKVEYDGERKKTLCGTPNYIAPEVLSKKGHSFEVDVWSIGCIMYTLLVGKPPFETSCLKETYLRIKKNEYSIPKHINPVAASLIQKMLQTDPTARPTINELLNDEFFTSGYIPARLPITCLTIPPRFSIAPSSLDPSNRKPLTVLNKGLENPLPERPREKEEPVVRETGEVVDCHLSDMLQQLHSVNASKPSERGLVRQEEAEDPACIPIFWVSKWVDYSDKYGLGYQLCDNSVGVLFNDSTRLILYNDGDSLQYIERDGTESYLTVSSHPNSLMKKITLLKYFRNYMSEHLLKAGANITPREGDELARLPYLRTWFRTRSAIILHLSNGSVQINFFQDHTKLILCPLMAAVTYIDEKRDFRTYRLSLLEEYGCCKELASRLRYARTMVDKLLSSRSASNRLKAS
Method in brief: as §1

Met(D1246N)(h) = Met(D1246N)(h) (Homo sapiens, UniProt P08581, D1228N)
Method in brief: as §1

PAK6(h) = PAK6(h) (Homo sapiens, UniProt Q9NQU5)
Method in brief: as §1

MEK1(h) = MEK1(h) (Homo sapiens, UniProt Q02750)
Sequence of MEK1(h) (Q02750 whole entry): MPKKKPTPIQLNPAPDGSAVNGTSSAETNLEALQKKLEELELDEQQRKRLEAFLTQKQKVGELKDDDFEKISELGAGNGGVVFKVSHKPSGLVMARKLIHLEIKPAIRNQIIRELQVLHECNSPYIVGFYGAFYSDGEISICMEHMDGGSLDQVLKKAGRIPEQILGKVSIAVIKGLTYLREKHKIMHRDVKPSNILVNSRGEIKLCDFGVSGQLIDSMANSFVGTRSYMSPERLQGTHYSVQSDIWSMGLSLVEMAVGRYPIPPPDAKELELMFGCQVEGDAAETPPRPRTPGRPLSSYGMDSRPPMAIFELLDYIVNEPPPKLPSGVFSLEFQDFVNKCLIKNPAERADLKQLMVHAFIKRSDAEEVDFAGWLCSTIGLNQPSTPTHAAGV
Method in brief: as §1

BTK(R28H)(h) = BTK(R28H)(h) (Homo sapiens, UniProt Q06187, R28H)
Method in brief: as §1

Lyn(m) = Lyn(m) (Mus musculus, UniProt P25911)
Method in brief: as §1

NEK2(h) = NEK2(h) (Homo sapiens, UniProt P51955)
Method in brief: as §1

[2] = target: PI3 Kinase (p110α/p85α)(h) (Homo sapiens, UniProt P42336)
Method in brief: as §1

EGFR(L858R)(h) = EGFR(L858R)(h) (Homo sapiens, UniProt P00533, L858R)
Sequence of EGFR(L858R)(h) (P00533 25-1210 L858R): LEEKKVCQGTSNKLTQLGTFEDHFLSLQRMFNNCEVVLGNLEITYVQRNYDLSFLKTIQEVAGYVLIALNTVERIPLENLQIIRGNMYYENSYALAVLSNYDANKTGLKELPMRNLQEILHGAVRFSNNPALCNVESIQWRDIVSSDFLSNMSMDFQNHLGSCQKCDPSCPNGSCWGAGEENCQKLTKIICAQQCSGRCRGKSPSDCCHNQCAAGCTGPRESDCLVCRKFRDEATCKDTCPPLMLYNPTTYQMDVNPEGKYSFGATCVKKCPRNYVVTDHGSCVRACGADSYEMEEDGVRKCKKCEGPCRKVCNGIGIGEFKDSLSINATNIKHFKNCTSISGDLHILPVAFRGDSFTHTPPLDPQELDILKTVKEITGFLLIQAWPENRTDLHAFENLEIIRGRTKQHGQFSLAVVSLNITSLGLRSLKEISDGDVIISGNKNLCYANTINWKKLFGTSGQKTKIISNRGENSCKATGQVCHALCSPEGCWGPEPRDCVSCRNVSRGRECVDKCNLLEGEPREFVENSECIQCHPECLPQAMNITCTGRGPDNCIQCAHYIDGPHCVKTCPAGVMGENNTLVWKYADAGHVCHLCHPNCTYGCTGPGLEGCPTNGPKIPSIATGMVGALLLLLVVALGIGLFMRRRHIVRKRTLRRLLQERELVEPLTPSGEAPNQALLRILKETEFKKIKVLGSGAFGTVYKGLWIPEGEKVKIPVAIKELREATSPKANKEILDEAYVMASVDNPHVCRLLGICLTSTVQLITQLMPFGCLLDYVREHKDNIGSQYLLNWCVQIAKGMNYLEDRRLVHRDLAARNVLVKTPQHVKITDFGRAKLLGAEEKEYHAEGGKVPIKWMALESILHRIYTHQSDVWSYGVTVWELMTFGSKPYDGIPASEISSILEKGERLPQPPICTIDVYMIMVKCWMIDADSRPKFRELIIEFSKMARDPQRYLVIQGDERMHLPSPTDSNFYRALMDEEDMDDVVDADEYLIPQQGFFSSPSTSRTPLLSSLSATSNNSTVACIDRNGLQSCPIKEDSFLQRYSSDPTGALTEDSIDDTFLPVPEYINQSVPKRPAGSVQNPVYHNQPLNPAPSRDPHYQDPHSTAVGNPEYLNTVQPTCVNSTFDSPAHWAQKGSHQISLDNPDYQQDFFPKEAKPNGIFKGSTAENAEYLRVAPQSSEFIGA
Method in brief: as §1

CDK2/cyclinA(h) = CDK2/cyclinA(h) (Homo sapiens, UniProt P24941)
Method in brief: as §1

MSK2(h) = MSK2(h) (Homo sapiens, UniProt O75676)
Method in brief: as §1

TLK2(h) = TLK2(h) (Homo sapiens, UniProt Q86UE8)
Sequence of TLK2(h) (Q86UE8 whole entry): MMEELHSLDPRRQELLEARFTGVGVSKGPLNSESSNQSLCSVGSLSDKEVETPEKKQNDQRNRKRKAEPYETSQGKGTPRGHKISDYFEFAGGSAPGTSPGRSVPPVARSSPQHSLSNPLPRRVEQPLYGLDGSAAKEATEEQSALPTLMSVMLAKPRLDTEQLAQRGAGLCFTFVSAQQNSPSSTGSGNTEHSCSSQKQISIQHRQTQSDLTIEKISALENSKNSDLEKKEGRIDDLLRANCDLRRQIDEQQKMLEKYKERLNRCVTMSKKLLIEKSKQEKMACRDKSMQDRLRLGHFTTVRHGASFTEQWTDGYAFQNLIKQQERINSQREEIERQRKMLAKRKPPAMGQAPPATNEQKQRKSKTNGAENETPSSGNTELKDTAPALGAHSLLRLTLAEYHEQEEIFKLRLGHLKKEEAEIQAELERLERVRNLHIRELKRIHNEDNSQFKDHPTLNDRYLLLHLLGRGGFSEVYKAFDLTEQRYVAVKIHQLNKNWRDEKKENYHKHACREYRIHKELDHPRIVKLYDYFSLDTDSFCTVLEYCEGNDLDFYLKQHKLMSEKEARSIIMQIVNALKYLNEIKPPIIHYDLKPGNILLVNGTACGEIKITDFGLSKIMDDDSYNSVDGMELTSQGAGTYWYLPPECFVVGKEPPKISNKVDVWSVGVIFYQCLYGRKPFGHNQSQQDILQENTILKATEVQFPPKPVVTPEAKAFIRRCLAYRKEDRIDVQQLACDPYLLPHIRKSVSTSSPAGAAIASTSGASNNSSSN
Method in brief: as §1

AMPKα2(h) = AMPKα2(h) (Homo sapiens, UniProt P54646)
Method in brief: as §1

Pim-3(h) = Pim-3(h) (Homo sapiens, UniProt Q86V86)
Method in brief: as §1

ACK1(h) = ACK1(h) (Homo sapiens, UniProt Q07912)
Method in brief: as §1

CaMKI(h) = CaMKI(h) (Homo sapiens, UniProt Q14012)
Method in brief: as §1

EphA3(h) = EphA3(h) (Homo sapiens, UniProt P29320)
Method in brief: as §1

DMPK(h) = DMPK(h) (Homo sapiens, UniProt Q09013)
Sequence of DMPK(h) (Q09013 whole entry): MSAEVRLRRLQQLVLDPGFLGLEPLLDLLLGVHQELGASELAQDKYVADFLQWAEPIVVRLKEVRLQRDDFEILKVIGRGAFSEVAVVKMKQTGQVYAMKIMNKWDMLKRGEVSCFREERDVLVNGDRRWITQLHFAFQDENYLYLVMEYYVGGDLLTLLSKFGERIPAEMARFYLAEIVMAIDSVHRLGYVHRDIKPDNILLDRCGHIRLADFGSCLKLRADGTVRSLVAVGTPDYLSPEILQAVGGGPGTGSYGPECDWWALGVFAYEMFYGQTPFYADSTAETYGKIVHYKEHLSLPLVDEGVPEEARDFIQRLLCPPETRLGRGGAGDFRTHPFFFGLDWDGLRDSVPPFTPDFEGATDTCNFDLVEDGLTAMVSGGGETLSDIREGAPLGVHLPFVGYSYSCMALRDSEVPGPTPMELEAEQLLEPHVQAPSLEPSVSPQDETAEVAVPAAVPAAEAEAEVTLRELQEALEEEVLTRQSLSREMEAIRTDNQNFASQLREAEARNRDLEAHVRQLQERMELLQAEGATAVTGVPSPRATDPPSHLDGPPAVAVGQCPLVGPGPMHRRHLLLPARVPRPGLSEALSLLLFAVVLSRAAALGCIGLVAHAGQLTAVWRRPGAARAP
Method in brief: as §1

TAO2(h) = TAO2(h) (Homo sapiens, UniProt Q9UL54)
Method in brief: as §1

IGF-1R(h) = IGF-1R(h) (Homo sapiens, UniProt P08069)
Method in brief: as §1

PKBγ(h) = PKBγ(h) (Homo sapiens, UniProt Q9Y243)
Sequence of PKBγ(h) (Q9Y243 whole entry): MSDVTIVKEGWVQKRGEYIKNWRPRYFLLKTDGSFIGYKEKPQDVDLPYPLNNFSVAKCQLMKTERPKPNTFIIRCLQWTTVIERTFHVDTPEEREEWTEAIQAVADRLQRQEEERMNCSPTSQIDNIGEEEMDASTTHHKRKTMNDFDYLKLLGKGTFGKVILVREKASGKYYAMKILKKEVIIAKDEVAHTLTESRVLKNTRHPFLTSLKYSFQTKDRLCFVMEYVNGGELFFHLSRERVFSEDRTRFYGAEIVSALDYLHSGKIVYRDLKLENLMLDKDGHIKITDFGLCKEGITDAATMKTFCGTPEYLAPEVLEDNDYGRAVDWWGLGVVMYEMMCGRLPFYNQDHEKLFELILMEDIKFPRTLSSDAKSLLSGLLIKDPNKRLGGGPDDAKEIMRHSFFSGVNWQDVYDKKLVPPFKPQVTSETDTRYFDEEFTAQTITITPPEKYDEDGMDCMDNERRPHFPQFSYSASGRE
Method in brief: as §1

EphB3(h) = EphB3(h) (Homo sapiens, UniProt P54753)
Method in brief: as §1

IGF-1R(h), activated = IGF-1R(h), activated (Homo sapiens, UniProt P08069)
Method in brief: as §1

SMILES	inhibition at 0.1 µM (PAR-1Bα(h)) [%]	inhibition at 0.1 µM (Src(1-530)(h)) [%]	inhibition at 0.1 µM (TrkA(h)) [%]	inhibition at 0.1 µM (NLK(h)) [%]	inhibition at 0.1 µM (EphA5(h)) [%]	inhibition at 0.1 µM (ULK2(h)) [%]	inhibition at 0.1 µM [1] [%]	inhibition at 0.1 µM (FGFR2(N549H)(h)) [%]	inhibition at 0.1 µM (Plk1(h)) [%]	inhibition at 0.1 µM (Met(D1246N)(h)) [%]	inhibition at 0.1 µM (PAK6(h)) [%]	inhibition at 0.1 µM (MEK1(h)) [%]	inhibition at 0.1 µM (BTK(R28H)(h)) [%]	inhibition at 0.1 µM (Lyn(m)) [%]	inhibition at 0.1 µM (NEK2(h)) [%]	inhibition at 0.1 µM [2] [%]	inhibition at 0.1 µM (EGFR(L858R)(h)) [%]	inhibition at 0.1 µM (CDK2/cyclinA(h)) [%]	inhibition at 0.1 µM (MSK2(h)) [%]	inhibition at 0.1 µM (TLK2(h)) [%]	also measured
Cc1cc2c(F)c(Oc3nc(Nc4cc(C5CC5)[nH]n4)cc(N4CCN(C)CC4)n3)ccc2[nH]1 [Compound 10]	75	101	102	-12	76	37	1	100	-9	80	0	14	10	98	6	-1	-5	5	-7	69	inhibition at 0.1 µM (AMPKα2(h)): 90%; inhibition at 0.1 µM (Pim-3(h)): -1%; inhibition at 0.1 µM (ACK1(h)): 99%; inhibition at 0.1 µM (CaMKI(h)): 2%; inhibition at 0.1 µM (EphA3(h)): 47%; inhibition at 0.1 µM (DMPK(h)): -4%; inhibition at 0.1 µM (TAO2(h)): 18%; inhibition at 0.1 µM (IGF-1R(h)): 78%; inhibition at 0.1 µM (PKBγ(h)): -10%; inhibition at 0.1 µM (EphB3(h)): -8%; inhibition at 0.1 µM (IGF-1R(h), activated): 59%
Cc1cc2c(F)c(Oc3nc(Nc4cc(C5CC5)[nH]n4)cc(N4CCNCC4)n3)ccc2[nH]1 [Compound 11, N-(5-cyclopropyl-1H-pyrazol-3-yl)-2-((4-fluoro-2-methyl-1H-indol-5-yl)oxy)-6-(piperazin-1-yl)pyrimidin-4-amine]	66	101	100	-8	81	30	1	100	-10	84	35	1	-7	101	-7	5	23	3	-5	70	inhibition at 0.1 µM (AMPKα2(h)): 88%; inhibition at 0.1 µM (Pim-3(h)): -4%; inhibition at 0.1 µM (ACK1(h)): 95%; inhibition at 0.1 µM (CaMKI(h)): 7%; inhibition at 0.1 µM (EphA3(h)): 56%; inhibition at 0.1 µM (DMPK(h)): -16%; inhibition at 0.1 µM (TAO2(h)): 16%; inhibition at 0.1 µM (IGF-1R(h)): 62%; inhibition at 0.1 µM (PKBγ(h)): -18%; inhibition at 0.1 µM (EphB3(h)): -18%; inhibition at 0.1 µM (IGF-1R(h), activated): 65%
